Experimental data taken from patent US4302448A, “Secretin preparations with intensified and protracted action, process for their manufacture, their use as well as dihydroxybenzoyl-L-tyrosine” (Hoechst Aktiengesellschaft, priority 1979, dated 1981).
Where a SMILES comes first, the peptide text is derived from it. Side-chain parts run from the residue outwards. The star is where a group is joined. Cbz = O=C(OCc1ccccc1)*

Test system: Pancreatic juice secretion of the rat
Assay: Pancreatic juice secretion of the rat after subcutaneous administration of secretin with depot bodies
Format: in vivo
Settings: for Δ% vs. control (percentage by which the pancreatic secretion is above the basal secretion after 5 hours) / Rel. Intensity of effect over 5 hours (total pancreatic juice secretion over 5 hours as compared with control): rat, subcutaneous, 5 CU/kg secretin + 10 mg depot body/animal; for Δ% vs. control (percentage by which the pancreatic secretion is above the basal secretion after 5 hours): control=100%, measure of depot effect; for Rel. Intensity of effect over 5 hours (total pancreatic juice secretion over 5 hours as compared with control): control (0.9% of NaCl)=1
Description: Secretin preparations for subcutaneous application which contained the depot bodies specified in the following Table were tested in animal experiments. In the experimental procedure chosen, 5 to 8 male rats weighing 300 to 500 g each are administered subcutaneously 5 CU/kg of secretin (CU means clinical unit) and 10 mg of the depot body to be tested each in aqueous solution or suspension.
The animals remain without food for 18 hours prior to the test, but they are given water ad libitum. Under urethane anaesthesia (5 ml/kg i.m. of 25% urethane) the abdomen is opened by median section after tracheotomy, and the pylorus is ligated. The ductus choledochus is tied off in its proximal part near the porta hepatis, and the bile is led into the duodenum via a polyethylene tube of a diameter of […]. A cannula or catheter is inserted into the distal part of the bile duct, into which the numerous pancreatic ducts open, immediately before it opens into the duodenum, and the volume of the secretion running off is measured in 60 minute intervals. Following a preliminary run of 60 minutes the preparations are administered.
L means the compound known from literature and characterized by the melting point, optionally UV, IR or NMR. A to C relate to the preparation according to Example 1, process A to C. These compounds were characterized by ultimate analysis. The third column indicates the percentage by which the pancreatic secretion is above the basal secretion after 5 hours (calculated on the control=100%). This value is a measure for the depot effect of the depot body tested. Column 4 indicates the intensification of the secretin effect, with the total pancreatic juice secretion having been given over 5 hours as compared with the control (0.9% of NaCl)=1.

Molecule	Δ% vs. control (percentage by which the pancreatic secretion is above the basal secretion after 5 hours) [%]	Rel. Intensity of effect over 5 hours (total pancreatic juice secretion over 5 hours as compared with control)	protracted and intensified action of secretin (in words) (subcutaneous secretin preparations with depot body)
NC(=O)[C@H](CCCCNC(=O)[C@H](Cc1ccc(O)cc1)NC(=O)OCc1ccccc1)NC(=O)[C@H](Cc1ccc(O)cc1)NC(=O)OCc1ccccc1 [Nα,Nε-Bis-(benzyloxycarbonyl-L-tyrosyl)-L-lysine-amide] (Cbz-Tyr-Lys([Tyr-Cbz])-NH2)	90	8.4	–
COC(=O)[C@H](CCCCNC(=O)[C@H](Cc1ccc(O)cc1)NC(=O)OCc1ccccc1)NC(=O)[C@H](Cc1ccc(O)cc1)NC(=O)OCc1ccccc1 [Nα,Nε-Bis-(benzyloxycarbonyl-L-tyrosyl)-L-lysine-methyl ester] (Cbz-Tyr-Lys([Tyr-Cbz])-OMe)	93	8.2	–
O=C(N[C@@H](Cc1ccc(O)cc1)C(=O)NCCCC[C@H](NC(=O)[C@H](Cc1ccc(O)cc1)NC(=O)OCc1ccccc1)C(=O)O)OCc1ccccc1 [Nα,Nε-Bis-(benzyloxycarbonyl-L-tyrosyl)-L-lysine] (Cbz-Tyr-Lys([Tyr-Cbz])-OH)	48	7.0	–
Oc1ccccc1 [Phenol]	51	8	clearly evident
O=C(CCc1ccc(O)cc1)c1c(O)cc(O)cc1O [Phloretin]	180	8.2	–
Oc1cc(O)cc(O)c1 [Phloroglucine]	15	6.6	–
Oc1cccc(O)c1O [Pyrogallol]	41	5.1	–
Oc1cccc(O)c1 [Resorcinol]	55	6.1	–
O=C(NCCN(CCN(CCNC(=O)c1c(O)cccc1O)C(=O)c1c(O)cccc1O)C(=O)c1c(O)cccc1O)c1c(O)cccc1O [Tetra-(2,6-dihydroxybenzoyl)-triethylene-tetramine]	78	8.1	–
O=C(NCCN(CCN(CCNC(=O)c1ccccc1O)C(=O)c1ccccc1O)C(=O)c1ccccc1O)c1ccccc1O [Tetra-(2-hydroxybenzoyl)-triethylene-tetramine]	91	9.0	–
O=C(NCCN(CCN(CCNC(=O)c1cc(O)cc(O)c1)C(=O)c1cc(O)cc(O)c1)C(=O)c1cc(O)cc(O)c1)c1cc(O)cc(O)c1 [Tetra-(3,5-dihydroxybenzoyl)-triethylene-tetramine]	101	9.7	–
O=C(N[C@@H](Cc1ccc(O)cc1)C(=O)NCCN(CCN(CCNC(=O)[C@H](Cc1ccc(O)cc1)NC(=O)c1cc(O)cc(O)c1)C(=O)[C@H](Cc1ccc(O)cc1)NC(=O)c1cc(O)cc(O)c1)C(=O)[C@H](Cc1ccc(O)cc1)NC(=O)c1cc(O)cc(O)c1)c1cc(O)cc(O)c1 [Tetra-(3,5-dihydroxybenzoyl-L-tyrosyl)-triethylene-tetramine]	98	9.5	–
O=C(NCCN(CCN(CCNC(=O)c1cccc(O)c1)C(=O)c1cccc(O)c1)C(=O)c1cccc(O)c1)c1cccc(O)c1 [Tetra-(3-hydroxybenzoyl-)triethylene-tetramine]	95	9.1	–
O=C(NCCN(CCNC(=O)c1cc(O)cc(O)c1)C(=O)c1cc(O)cc(O)c1)c1cc(O)cc(O)c1 [Tris-(3,5-dihydroxybenzoyl-diethylene-triamine]	79	8.6	–
Bis-(2,4-dihydroxybenzoyl)-1,4-diaminobutane	83	6.7	–
Bis-(2,4-dihydroxybenzoyl-L-tyrosine)-diaminoethane	82	6.0	–
Bis-(2-carboxybenzoyl-L-tyrosine)-diaminoethane	48	6.3	–
Bis-(2-hydroxybenzoyl)-diaminoethane	72	5.9	–
Bis-(3,5-dihydroxybenzoyl)-1,4-diaminobutane	85	7.4	–
Bis-(3,5-dihydroxybenzoyl)-diaminoethane	79	6.1	–
Bis-(3,5-dihydroxybenzoyl-L-tyrosine)-diaminoethane	58	7.0	–
Bis-(3-benzoylpropionyl-L-tyrosine)-diaminoethane	60	3.7	–
Bis-(benzyloxycarbonyl-L-tyrosine)-diaminoethane	44	5.5	–
Bis-phloretin phosphate	56	2.5	–
Phloretin-3,5-dimethylphenyl phosphate	68	3.7	–
